3 compounds from US9840474B2, “Pyrimidine compounds and use as anti-cervical cancer thereof” (SICHUAN UNIVERSITY, priority 2014, dated 2017) can be followed below.

Type in all cases: cell-based
Assay [1] has as its system human cervical carcinoma Caski cells. Briefly: MTT cytotoxicity / inhibition test of cervical cancer Caski cells. The conditions noted are these: for OD: Caski cells, MTT; for IC50 value: cervical cancer Caski cells. From the text:
(§1) In order to investigate in vitro effects of CH01 and CH02 against cervical cancer and HPV16 viruses, in the experiment, the cytotoxicity of above compounds, together with their effects on HPV16 E6 and E7 mRNA, is investigated by culture with human cervical cancer cells (HPV16 positive). Structures of test compounds are shown as follows:
(§2) [Experimental Method] • 1. Cytotoxicity: MTT method was used, and Reed-Muench method was used to calculate indexes median toxic concentration (TC50) and maximum non-toxic concentation (TC0). • 2. HPV16 E6 and E7 mRNA: The cell culture was treated for 48 h at maximum non-toxic concentration, and then the culture was terminated. Total RNA in cells was extracted, and effects of test samples on HPV16 E6 and E7 mRNA were measured using Real-time PCR method.
[Experimental Result] • 1. Inhibition Test of Cervical Cancer Caski Cells

In the next assay the test system is HPV16 E6 mRNA. The experiment in a line: Real-time PCR of HPV16 E6 mRNA expression in Caski cells. The conditions noted are these: for effect on HPV E6 mRNA in Caski cells / inhibitory activity on E6 compared with positive control cidofovir / E6 One independent tests (inhibitory rate) / E6 Two independent tests (inhibitory rate): Caski cells; for E6 One independent tests (inhibitory rate) / E6 Two independent tests (inhibitory rate) / inhibition at 0.2 µg/mL: 48 h; for E6 One independent tests (inhibitory rate): test one; for E6 Two independent tests (inhibitory rate): test two; for inhibition at 0.2 µg/mL: Human papillomavirus 16, Ca-Ski.
Description: as §1, §2
(§3) Effects of Samples on Expression of HPV16 E6 mRNA and HPV16 E7 mRNA in Caski Cells

The subject of a further assay is HPV16 E7 mRNA. The experiment in a line: Real-time PCR of HPV16 E7 mRNA expression in Caski cells. The note with it: for effect on HPV E7 mRNA in Caski cells / inhibitory activity on E7 compared with positive control cidofovir / E7 One independent tests (inhibitory rate) / E7 Two independent tests (inhibitory rate): Caski cells; for E7 One independent tests (inhibitory rate) / E7 Two independent tests (inhibitory rate) / inhibition at 0.2 µg/mL: 48 h; for E7 One independent tests (inhibitory rate): test one; for E7 Two independent tests (inhibitory rate): test two; for inhibition at 0.2 µg/mL: Human papillomavirus 16, Ca-Ski.
Description: as §1, §2, §3

Where two headings read alike, the source gives them in different places.

Take “4-(2-methoxybenzylamino)-5-formaldoxime-6-chloropyrimidine [CH02]”: the OD in assay [1] (0.097656 μg/ml) amounted to 0.8357; in assay [1] (0.195313 μg/ml) it was 0.78; in assay [1] (0.390625 μg/ml), 0.4733; in assay [1] (0.78125 μg/ml) it was 0.3837; in assay [1] (1.5625 μg/ml), 0.313; in assay [1] (3.125 μg/ml), 0.2943. Besides, the OD in assay [1] (6.25 μg/ml) is given as 0.2727; in assay [1] (12.5 μg/ml), 0.2743; in assay [1] (25 μg/ml), 0.2803; in assay [1] (50 μg/ml) it was 0.3087; in assay [1] (100 μg/ml), 0.3757; in assay [1] (200 μg/ml), 0.5557. The IC50 value result in assay [1] is listed as “about 0.4 μg/ml”. Moreover, the “effect on HPV E6 mRNA in Caski cells” value in the assay with HPV16 E6 mRNA is given as “showed inhibitory effects”. Also, the “inhibitory activity on E6 compared with positive control cidofovir” value in the assay on HPV16 E6 mRNA is given as “better inhibitory activity than the positive control cidofovir”. Also, the “E6 One independent tests (inhibitory rate)” value stood at 0.461 with HPV16 E6 mRNA (0.067 μg/ml) and 0.599 with HPV16 E6 mRNA (0.2 μg/ml). The “E6 Two independent tests (inhibitory rate)” value in the assay with HPV16 E6 mRNA (0.067 μg/ml) is 0.481; with HPV16 E6 mRNA (0.2 μg/ml), 0.549. Further, in the assay with HPV16 E7 mRNA, the “effect on HPV E7 mRNA in Caski cells” value was “showed inhibitory effects”. In addition, the “inhibitory activity on E7 compared with positive control cidofovir” value in the assay on HPV16 E7 mRNA is “better inhibitory activity than the positive control cidofovir”. For the same compound, the “E7 One independent tests (inhibitory rate)” value in the assay with HPV16 E7 mRNA (0.067 μg/ml) is given as 0.484; with HPV16 E7 mRNA (0.2 μg/ml), 0.516. Moreover, the “E7 Two independent tests (inhibitory rate)” value in the assay with HPV16 E7 mRNA (0.067 μg/ml) came out at 0.488; in the assay on HPV16 E7 mRNA (0.2 μg/ml), 0.526.

Take “4-(4-tert-butylbenzylamino)-5-formaldoxime-6-chloropyrimidine [CH01]”: the OD in assay [1] (0.097656 μg/ml) is recorded as 0.8367; in assay [1] (0.195313 μg/ml), 0.7847; in assay [1] (0.390625 μg/ml) it was 0.6353; in assay [1] (0.78125 μg/ml), 0.5667; in assay [1] (1.5625 μg/ml), 0.488; in assay [1] (3.125 μg/ml), 0.4667. Moreover, the OD in assay [1] (6.25 μg/ml) is 0.4117; in assay [1] (12.5 μg/ml), 0.3033; in assay [1] (25 μg/ml), 0.283; in assay [1] (50 μg/ml) it was 0.28; in assay [1] (100 μg/ml), 0.2967; in assay [1] (200 μg/ml) it was 0.4373. Besides, the IC50 value entry in assay [1] is recorded as “about 1.5 μg/ml”. Besides, in the assay on HPV16 E6 mRNA, the “effect on HPV E6 mRNA in Caski cells” value is on record as “showed inhibitory effects”. Besides, in the assay on HPV16 E6 mRNA, the “inhibitory activity on E6 compared with positive control cidofovir” value is on record as “better inhibitory activity than the positive control cidofovir”. Moreover, the “E6 One independent tests (inhibitory rate)” value in the assay with HPV16 E6 mRNA (0.067 μg/ml) is 0.489; in the assay with HPV16 E6 mRNA (0.2 μg/ml) it was 0.577. The “E6 Two independent tests (inhibitory rate)” value came out at 0.494 in the assay on HPV16 E6 mRNA (0.067 μg/ml) and 0.553 in the assay on HPV16 E6 mRNA (0.2 μg/ml). Moreover, the “effect on HPV E7 mRNA in Caski cells” value in the assay on HPV16 E7 mRNA is on record as “showed inhibitory effects”. For the same compound, the “inhibitory activity on E7 compared with positive control cidofovir” value in the assay with HPV16 E7 mRNA is “better inhibitory activity than the positive control cidofovir”. The “E7 One independent tests (inhibitory rate)” value in the assay on HPV16 E7 mRNA (0.067 μg/ml) came out at 0.488; in the assay with HPV16 E7 mRNA (0.2 μg/ml), 0.484. The results for the “E7 Two independent tests (inhibitory rate)” value in the assay with HPV16 E7 mRNA (0.067 μg/ml) and with HPV16 E7 mRNA (0.2 μg/ml) were 0.455 and 0.449, respectively.

For the compound `Nc1ccn(C[C@@H](CO)OCP(=O)(O)O)c(=O)n1` [cidofovir, reference compound], the inhibition at 0.2 µg/mL was 32.6% in the assay on HPV16 E6 mRNA (read-out: E6 One independent tests (inhibitory rate)), 33.6% in the assay with HPV16 E6 mRNA (read-out: E6 Two independent tests (inhibitory rate)), 32.1% in the assay with HPV16 E7 mRNA (read-out: E7 One independent tests (inhibitory rate)) and 32.4% in the assay on HPV16 E7 mRNA (read-out: E7 Two independent tests (inhibitory rate)).
